Experimental data reported in patent publication US20210115509A1, “BIOMARKER FOR IDENTIFYING SPECIFIC EXPOSURE TO KETONES AND METHOD OF IDENTIFICATION USING THE SAME” (KOREA INSTITUTE OF SCIENCE AND TECHNOLOGY, priority 2019, published 2021).

Legend:
[1] = tested on: BEAS-2B human bronchial epithelial cell line; assay: Gene expression change by high-throughput RNA sequencing (NextSeq 500) in ketone-exposed BEAS-2B cells; assay type: cell-based
Protocol: RNA was extracted from cell samples of ketone-exposed and non-ketone-exposed groups using a TRIzol reagent (Life Technologies, USA) in accordance with the manufacturer's directions to isolate total RNA and the total RNA was purified using a RNeasy mini kit (Qiagen, USA). The concentration of each total RNA sample was determined by a ND-2000 spectrophotometer (Thermo Inc., DE, USA) as a spectrophotometer and Agilent 2100 Bioanalyzer (Agilent Technologies, USA).
The establishment of libraries from the total RNA obtained in Example 2-1 in the experimental group and the normal control group exposed to the ketones was carried out using a QuantSeq 3′ mRNA-Seq Library Prep Kit (Lexogen, Inc., Austria) in accordance with the manufacturer's directions. 500 ng of the total RNA was hybridized with an oligo-dT primer including an Illumina-compatible sequence at the 5′ end of RNA, followed by reverse transcription. After degradation of the RNA template, a second strand was synthesized using a random primer including an Illumina-compatible linker sequence at the 5′ end thereof. Double-stranded libraries were purified using magnetic beads to remove all reaction components. The library was amplified in order to add the entire adapter sequence required for cluster production, and the completed cDNA library was purified from the PCR components.
Sequencing was performed by high-throughput sequencing as single-end 75 sequencing using a NextSeq 500 (IIlumina, Inc., USA). Read count (RC) data was processed based on the quantile normalization method using EdgeR in R (R development Core Team, 2016) using Bioconductor (Gentleman et al., 2004). Gene classification was based on searches performed on DAVID (http://david.abcc.ncifcrf.gov/) and the Medline database (http://www.ncbi.nlm.nih.gov/).
The extracted data were analyzed through normalization using Agilent GeneSpring GX 12.6.1 (Agilent technologies, CA, USA) to analyze the expression pattern of each gene.

[2] = tested on: BEAS-2B human bronchial epithelial cell line; assay: MTT assay, cytotoxicity of ketone compounds in BEAS-2B cell line; assay type: cell-based; conditions: BEAS-2B, 48 hours, MTT
Protocol: BEAS-2B (Korean Cell Line Bank), a human bronchial epithelial cell line, was cultured using RPMI 1640 medium (Gibco, USA) supplemented with 10% FBS until the cells grew to about a confluence of 70 to 80% in a 100 mm dish.
Among ketones belonging to mVOCs (microbial volatile organic compounds) exposed to the environment, acetone, 2-butanone, 2-pentanone, 2-hexanone and 2-heptanone were selected, and the chemicals were dissolved in filtered distilled water (DW). A vehicle concentration was set to 0.1% or less in all experiments.
MTT assay using a BEAS-2B cell line was performed in accordance with the method of Mossman et al. (J. Immunol. Methods, 65, 55-63, 1983).
Specifically, the cells were seeded at a density of 3.5×10^4 cells/well in a 24-well plate and treated with the five ketone compounds dissolved in filtered distilled water, prepared in Example 1-2. After 48 hours, the result was mixed with 5 mg/ml of MTT (3-4,5-dimethylthiazol-2,5-diphenyltetrazolium bromide), added to a tube and incubated at 37° C. for 3 hours. Then, the medium was removed, the formed formazan crystal was dissolved in 500 μl of DMSO, and then 100 μl of the solution was transferred to a 96-well plate to measure an OD (optical density) value at 540 nm.

[3] = IC5 conc.: Acetone 5.38, 2-Butanone 22.27, 2-Pentanone 5.24, 2-Hexanone 14.82, 2-Heptanone 5.05 mM
[4] = IC20 conc.: Acetone 71.90, 2-Butanone 106.21, 2-Pentanone 39.38, 2-Hexanone 52.51, 2-Heptanone 20.22 mM

For `CCC(C)=O` [2-Butanone, 2-butanone], the “Fold change ADRA2A (NM_000681)” value [1, 3] was 0.185, the “Fold change ATRNL1 (NR_074088)” value [1, 3] was 3.234 and the “Fold change C12orf79 (NR_046159)” value [1, 3] was 0.216. The “Fold change C14orf80 (NR_046159)” value [1, 3] was 0.356, the “Fold change CALML3 (NM_001286399)” value [1, 3] was 0.356 and the “Fold change CCDC184 (NM_001013635)” value [1, 3] was 2.379. For the same molecule, the “Fold change CD37 (NM_001040031)” value [1, 3] was 3.286, the “Fold change CDHR1 (NM_001171971)” value [1, 3] was 0.470 and the “Fold change CHL1 (NM_001253387)” value [1, 3] was 0.274. The “Fold change COL4A3 (NM_000091)” value [1, 3] was 2.264, the “Fold change CRLF2 (NM_022148)” value [1, 3] was 0.359 and the “Fold change CSF3R (NM_172313)” value [1, 3] was 0.356. For the same molecule, the “Fold change DNMBP-AS1 (NR_024130)” value [1, 3] was 11.453, the “Fold change EGR1 (NM_001964)” value [1, 3] was 0.422 and the “Fold change GNA14 (NM_004297)” value [1, 3] was 3.512. The “Fold change LOC728752 (NR_036504)” value [1, 3] was 3.506, the “Fold change PAX8 (NM_003466)” value [1, 3] was 6.636 and the “Fold change PRRT3-AS1 (NR_046734)” value [1, 3] was 2.207. The “Fold change RBP3 (NM_002900)” value [1, 3] was 0.356, the “Fold change SEPT14 (NM_207366)” value [1, 3] was 0.458 and the “Fold change SERPINA12 (NM_001304461)” value [1, 3] was 0.356. The “Fold change SLC13A4 (NM_012450)” value [1, 3] was 7.697, the “Fold change SPOCK2 (NM_001244950)” value [1, 3] was 3.020 and the “Fold change TSPAN1 (NM_005727)” value [1, 3] was 2.540. The “Fold change USP12-AB1 (NR_046647)” value [1, 3] was 3.499, the “Fold change VIPR†-AS1 (NR_046654)” value [1, 3] was 0.356 and the “Fold change XIRP1 (NM_001198621)” value [1, 3] was 0.356. The “Fold change ZFP69B (NM_023070)” value [1, 3] was 4.676, the “Fold change ZNF432 (NM_014650)” value [1, 3] was 2.326 and the “Fold change ZNF487 (NR_026693)” value [1, 3] was 0.356. For the same molecule, the “Fold change ADRA2A (NM_000681)” value [1, 4] was 0.184, the “Fold change ATRNL1 (NR_074088)” value [1, 4] was 2.330 and the “Fold change C12orf79 (NR_046159)” value [1, 4] was 0.216. The “Fold change C14orf80 (NR_046159)” value [1, 4] was 0.356, the “Fold change CALML3 (NM_001286399)” value [1, 4] was 0.356 and the “Fold change CCDC184 (NM_001013635)” value [1, 4] was 6.647. For the same molecule, the “Fold change CD37 (NM_001040031)” value [1, 4] was 2.647, the “Fold change CDHR1 (NM_001171971)” value [1, 4] was 0.222 and the “Fold change CHL1 (NM_001253387)” value [1, 4] was 0.268. For the same molecule, the “Fold change COL4A3 (NM_000091)” value [1, 4] was 3.577, the “Fold change CRLF2 (NM_022148)” value [1, 4] was 0.359 and the “Fold change CSF3R (NM_172313)” value [1, 4] was 0.356. For the same molecule, the “Fold change DNMBP-AS1 (NR_024130)” value [1, 4] was 12.732, the “Fold change EGR1 (NM_001964)” value [1, 4] was 0.404 and the “Fold change GNA14 (NM_004297)” value [1, 4] was 5.582. The “Fold change LOC728752 (NR_036504)” value [1, 4] was 6.647, the “Fold change PAX8 (NM_003466)” value [1, 4] was 2.233 and the “Fold change PRRT3-AS1 (NR_046734)” value [1, 4] was 2.147. For the same molecule, the “Fold change RBP3 (NM_002900)” value [1, 4] was 0.356, the “Fold change SEPT14 (NM_207366)” value [1, 4] was 0.217 and the “Fold change SERPINA12 (NM_001304461)” value [1, 4] was 0.356. The “Fold change SLC13A4 (NM_012450)” value [1, 4] was 8.571, the “Fold change SPOCK2 (NM_001244950)” value [1, 4] was 8.426 and the “Fold change TSPAN1 (NM_005727)” value [1, 4] was 2.466. The “Fold change USP12-AB1 (NR_046647)” value [1, 4] was 5.570, the “Fold change VIPR†-AS1 (NR_046654)” value [1, 4] was 0.356 and the “Fold change XIRP1 (NM_001198621)” value [1, 4] was 0.356. The “Fold change ZFP69B (NM_023070)” value [1, 4] was 2.942, the “Fold change ZNF432 (NM_014650)” value [1, 4] was 6.342 and the “Fold change ZNF487 (NR_026693)” value [1, 4] was 0.356. The “concentration (105) providing a survival rate (viability) of 95%” value [2] was 22270 µM and the “concentration (1020) providing a survival rate (viability) of 80%” value [2] was 106210 µM.
